Reference: ChEMBL document CHEMBL1649565, “Besifloxacin, a novel fluoroquinolone, has broad-spectrum in vitro activity against aerobic and anaerobic bacteria” (Antimicrob Agents Chemother, 2009)
In brackets after ≈: the same amount, converted by molar mass. Activity calls are given as the source filed them. The rule behind the calls is not given here.

Columns and labels:
Fusobacterium sp. [1] = assay: Antibacterial activity against Fusobacterium sp. by CLSI M11-A7 method; format: functional
Peptostreptococcus sp. = assay: Antibacterial activity against Peptostreptococcus sp. assessed as percent susceptible isolates by CLSI M11-A7 method; format: functional
Prevotella sp. = assay: Antibacterial activity against Prevotella sp. by CLSI M11-A7 method; format: functional
[2] = Drug concentration in human tears at 0.6% administered topically as single dose measured after 10 mins; format: ADME; conditions: topical or ocular, read-out: Drug uptake
Fusobacterium sp. [3] = assay: Antibacterial activity against Fusobacterium sp. assessed as percent susceptible isolates by CLSI M11-A7 method; format: functional
Bacteroides fragilis = assay: Antibacterial activity against Bacteroides fragilis assessed as percent susceptible isolates by CLSI M11-A7 method; format: functional
Cutibacterium acnes [4] = assay: Antibacterial activity against Propionibacterium acnes by CLSI M11-A7 method; format: functional
Cutibacterium acnes [5] = assay: Antibacterial activity against Propionibacterium acnes assessed as percent susceptible isolates by CLSI M11-A7 method; format: functional
Enterococcus faecalis = assay: Antibacterial activity against vancomycin- resistant Enterococcus faecalis assessed as percent susceptible isolates by CLSI M100-S18 method; format: functional
Enterococcus faecium = assay: Antibacterial activity against vancomycin- resistant Enterococcus faecium assessed as percent susceptible isolates by CLSI M100-S18 method; format: functional
Citrobacter koseri = assay: Antibacterial activity against Citrobacter koseri assessed as percent susceptible isolates by CLSI M7-A7 method; format: functional
Neisseria meningitidis = assay: Antibacterial activity against Neisseria meningitidis assessed as percent susceptible isolates by CLSI M7-A7 method; format: functional
Streptococcus agalactiae = assay: Antibacterial activity against Streptococcus agalactiae assessed as percent susceptible isolates by CLSI M100-S18 method; format: functional
[6] = Antibacterial activity against Lancefield Streptococcus sp. 'group G' assessed as percent susceptible isolates by CLSI M100-S18 method; format: functional
Streptococcus sp. = assay: Antibacterial activity against Lancefield Streptococcus sp. group F assessed as percent susceptible isolates by CLSI M100-S18 method; format: functional
[7] = Antibacterial activity against Lancefield Streptococcus sp. 'group C' assessed as percent susceptible isolates by CLSI M100-S18 method; format: functional

## N[C@@H]1CCCCN(c2c(F)cc3c(=O)c(C(=O)O)cn(C4CC4)c3c2Cl)C1 [BESIFLOXACIN]
Fusobacterium sp. [1]
  MIC50: 0.25 µg/mL (≈ 0.635 µM)
  MIC90: 1 µg/mL (≈ 2.54 µM)
Peptostreptococcus sp.
  Activity: inactive
Prevotella sp.
  MIC50: 1 µg/mL (≈ 2.54 µM)
  MIC90: 4 µg/mL (≈ 10.2 µM)
[2]
  concentration at 10 min: 610 µg/mL
Fusobacterium sp. [3]
  Activity: inactive
Bacteroides fragilis
  Activity: inactive
Clostridium perfringens
  Activity: inactive
Cutibacterium acnes [4]
  MIC50: 0.25 µg/mL (≈ 0.635 µM)
  MIC90: 0.25 µg/mL (≈ 0.635 µM)
Cutibacterium acnes [5]
  Activity: inactive

## C[C@H]1COc2c(N3CCN(C)CC3)c(F)cc3c(=O)c(C(=O)O)cn1c23.C[C@H]1COc2c(N3CCN(C)CC3)c(F)cc3c(=O)c(C(=O)O)cn1c23.O [LEVOFLOXACIN]
Enterococcus faecalis
  Activity: 58.5%
Enterococcus faecium
  Activity: 30.9%
Citrobacter koseri
  Activity: 99%
Neisseria meningitidis
  Activity: 100%

## NC[C@H]1O[C@H](O[C@H]2[C@H](O)[C@@H](O[C@H]3O[C@H](CO)[C@@H](O)[C@H](N)[C@H]3O)[C@H](N)C[C@@H]2N)[C@H](N)C[C@@H]1O [TOBRAMYCIN]
Streptococcus agalactiae
  Activity: 73%
[6]
  Activity: 74%
Streptococcus sp.
  Activity: 74%
[7]
  Activity: 74%
